Test results taken from ChEMBL document CHEMBL1143634, “Calculating virtual log P in the alkane/water system (log P(N)(alk)) and its derived parameters deltalog P(N)(oct-alk) and log D(pH)(alk)” (J Med Chem, 2005).

Test: Tested for fraction of oral dose absorbed orally in humans
Type: ADME
Conditions: human
With C=CCc1ccccc1OCC(O)CNC(C)C (stereo not given) [ALPRENOLOL] the Activity was 96%. Cc1cc(=O)n(-c2ccccc2)n1C [ANTIPYRINE] gave an Activity of 97%. In the case of OC[C@@H](O)[C@@H](O)[C@H](O)[C@H](O)CO [MANNITOL], the Activity is reported as 26%. Molecule CC(C)NCC(O)COc1cccc2[nH]ccc12 (stereo not given) [PINDOLOL] has an Activity of 92%.

Same assay, conditions: human, read-out: Activity
With O=C(O)c1cc(/N=N/c2ccc(S(=O)(=O)Nc3ccccn3)cc2)ccc1O [SULFASALAZINE] the Fa was 13%.

Test: Lipophilicity determined as logarithm of the partition coefficient in the alkane/water system
Conditions: octanol/water
For C=CCc1ccccc1OCC(O)CNC(C)C (stereo not given) [ALPRENOLOL], the “Log PNalk” value was 1.3. For CC(C)(C)c1ccc(C(O)CCCN2CCC(C(O)(c3ccccc3)c3ccccc3)CC2)cc1 (stereo not given) [TERFENADINE], the “Log PNalk” value was 2.63. With C[C@]12CC[C@H]3[C@@H](CCC4=CC(=O)CC[C@@]43C)[C@@H]1CC[C@@H]2O [TESTOSTERONE] the “Log PNalk” value was 0.41. In the case of CCCCNc1ccc(C(=O)OCCN(C)C)cc1 [TETRACAINE], the “Log PNalk” value is reported as 1.75. With C1CCSC1 [TETRAHYDROTHIOPHENE] the “Log PNalk” value was 1.59. In the case of Cn1c(=O)c2[nH]cnc2n(C)c1=O.O [THEOPHYLLINE], the “Log PNalk” value is reported as -1.7. In the case of CCCC(C)C1(CC)C(=O)NC(=S)NC1=O (stereo not given) [THIOPENTAL], the “Log PNalk” value is reported as 0.52. With Cc1ccc(C(C)C)c(O)c1 [THYMOL] the “Log PNalk” value was 1.4. In the case of CC(C)(C)NC[C@H](O)COc1nsnc1N1CCOCC1 [TIMOLOL], the “Log PNalk” value is reported as -1. For COc1cccc([C@@]2(O)CCCC[C@@H]2CN(C)C)c1 [TRAMADOL], the “Log PNalk” value was 1.82. With O=C(O)C(Cl)(Cl)Cl [TRICHLOROACETIC ACID] the “Log PNalk” value was -2.63. For CC(Cl)(Cl)Cl [TRICHLOROETHANE], the “Log PNalk” value was 2.71. For CC(=O)CC(c1ccccc1)c1c(O)c2ccccc2oc1=O (stereo not given) [WARFARIN], the “Log PNalk” value was 0.05. With COc1ccc(C(=O)O)cc1 [p-ANISIC ACID] the “Log PNalk” value was -0.15. With Cc1ccc(O)cc1 [p-CRESOL] the “Log PNalk” value was -0.19.
